Several values for one entry are separate records, joined by “and”; a condition that tells them apart may be missing. Identical values can stand only once. Like-named read-outs stand apart in the source and are kept apart here.
What was measured:
[1] = tested on: L1210 leukemia; experiment: Lymphoid Leukemia L1210, survival of tumored mice; format: in vivo, CD2F1 mice; conditions: for response vs control in vivo at 300 mg/kg: 300 mg/kg i.p.; for response vs control in vivo at 200 mg/kg: 200 mg/kg i.p.; for response vs control in vivo at 150 mg/kg: 150 mg/kg i.p.; for response vs control in vivo at 50 mg/kg: 50 mg/kg i.p.; for response vs control in vivo at 25 mg/kg: 25 mg/kg i.p.; for response vs control in vivo at 12.5 mg/kg: 12.5 mg/kg i.p.
Protocol: The efficacy of the compounds of this invention against the transplanted mouse tumors was evaluated in test systems currently in use at the National Cancer Institute for the detection and assessment of anticancer activity. […] J. Cancer, 17, 129-142, (1981); Venditti, J. M., Seminars in Oncology, 8 (4) (1981); Goldin, A. and J. M. Venditti, in Recent Results in Cancer Research, 70, S. K. Carter and Y. Sakurai, Eds., Springer-Verlag, Berlin/Heidelberg, 1980].
The animals used in this test were CD2 F1 mice, all males weighing a minimum of 18 g and all within a 4 g weight range at the start of the test. The test group consisted of six mice. The tumor was implanted in each of the test mice by the intraperitoneal injection of 0.1 ml of diluted ascitic fluid containing 10^5 cells drawn from a mouse with L1210 leukemia. The test compounds were suspended in hydroxypropylcellulose or saline with Tween® 80 surfactant or dissolved in saline and injected intraperitoneally, at various doses, once daily for nine consecutive days starting on day one relative to the day of tumor inoculation (day 0). The control mice received injections of saline or hydroxypropylcellulose vehicle only. The mice were weighed and survivors were recorded on a regular basis for 30 days. The median survival time and the ratio of the median survival time for the treated (T) and control (C) mice was calculated. […] Drug effectiveness was assessed on the basis of the survival time. Results were expressed as a percentage of the control survival time (Median Survival Time: T/C ×100%). The criterion for effectiveness was determined by: T/C×100≥125 percent.

[2] = tested on: human colon carcinoma cells HCT-15; experiment: Human colon tumor test in vitro, HCT-15 cell growth inhibition; format: cell-based; conditions: HCT-15 cells, compound day 1 to day 4; for IC50: Homo sapiens, HCT-15, 72 h, read-out: in vitro HCT-15 ID50 (50 percent inhibition of number of doublings); for in vitro HCT-15 ID50 (50 percent inhibition of number of doublings): 4320 min
Protocol: The compound of this invention were also tested for their ability to inhibit the growth of human colon carcinoma cells in vitro.
The human colon carcinoma cells, designated HCT-15, were derived from a specimen of an adenocarcinoma of human colon removed during surgery. The cells were grown in Roswell Park Medical Institute (RPMI) Medium 1640 supplemented with 10% heat inactivated fetal calf serum, penicillin (100 units/ml), streptomycin (100 μg/ml), gentamicin (20 μg/ml), fungizone (25 μg/ml), 0.075 percent sodium bicarbonate, […] 4-(2-hydroxyethyl)-1-piperazineethanesulfonic acid and […] N-tris(hydroxymethyl)methylglycine. […] On day 1 cells from sample dishes were harvested using trypsin (0.25%) treatment and counted with a hemocytometer to determine the number of cells per dish at the time of the addition of the compounds. Compounds of this invention were added in varying concentrations to other cultures. On day 4, treated and control cultures were harvested by trypsin treatment and the number of cells was determined. The number of doublings for the control cells was determined from the cell numbers on days 1 and 4. The ID50, the concentration of compound required to inhibit by 50 percent the number of doublings, was then calculated from the dose-response curve in which cell numbers were plotted on log-log paper against compound concentrations in micrograms per ml.

[3] = Mus musculus, L1210, ip, 720 h, read-out: L1210 Leukemia % T/C (median survival time)
[4] = Mus musculus, L1210, ip, 720 h, 100 mg/kg i.p., read-out: L1210 Leukemia % T/C (median survival time)
[5] = Mus musculus, L1210, ip, 720 h, 75 mg/kg i.p., read-out: L1210 Leukemia % T/C (median survival time)
[6] = Mus musculus, L1210, ip, 720 h, nonoptimal Q1DX9 instead of Q3DX9, read-out: L1210 Leukemia % T/C (median survival time)
[7] = Mus musculus, L1210, ip, 720 h, 100 mg/kg i.p., nonoptimal Q1DX9 instead of Q3DX9, read-out: L1210 Leukemia % T/C (median survival time)

Row | SMILES | IC50 [2] [µg/mL] | in vitro HCT-15 ID50 (50 percent inhibition of number of doublings) [2] | further results
1 | Cc1ccc(-c2ccc(-c3nc4ccc(F)cc4c(C(=O)O)c3C)cc2)cc1 [Example 30] | < 0.5 | – | response vs control in vivo at 300 mg/kg [1, 3]: 291%
2 | Cc1c(-c2ccc(-c3ccc(F)cc3)cc2)nc2ccc(F)cc2c1C(=O)O [Example 31] | < 0.5 | – | L1210 Leukemia % T/C (median survival time) ([1]; 37.5 mg/kg i.p.): 218%
3 | O=C(O)c1cc(-c2ccc(-c3ccccc3)cc2)nc2ccc(F)cc12 [Example 33] | < 0.5 | – | response vs control in vivo at 200 mg/kg [1, 3]: 170%
4 | Cc1ccc(-c2ccc(-c3nc4ccc(F)cc4c(C(=O)O)c3C)cc2)cc1Cl [Example 38] | > 1 | – | response vs control in vivo at 200 mg/kg [1, 3]: 238%
5 | CCc1ccc(-c2ccc(-c3nc4ccc(F)cc4c(C(=O)O)c3C)cc2)cc1 [Example 40] | > 1 | – | response vs control in vivo at 100 mg/kg [1, 4]: 157%
6 | Cc1c(-c2cc(-c3ccccc3)cs2)nc2ccc(F)cc2c1C(=O)O [Example 44] | < 0.1 | – | response vs control in vivo at 100 mg/kg [1, 4]: 136%
7 | Cc1c(-c2ccc(C3CCCCC3)cc2)nc2ccc(Br)cc2c1C(=O)O [Example 45] | – | 0.13 µg/mL | response vs control in vivo at 400 mg/kg ([1]; Mus musculus, L1210, ip, 720 h, 400 mg/kg i.p., read-out: L1210 Leukemia % T/C (median survival time)): 160%
8 | Cc1c(-c2ccc(-c3ccccc3)cc2)nc2cc(Cl)ccc2c1C(=O)O [Example 49] | > 5 | – | response vs control in vivo at 200 mg/kg [1, 3]: 174%
9 | Cc1c(-c2ccc(Oc3ccccc3)cc2)nc2cc(Cl)ccc2c1C(=O)O [Example 50] | > 5 | – | response vs control in vivo at 100 mg/kg [1, 4]: 131%
10 | CCc1ccc2nc(-c3ccc(-c4ccccc4)cc3)c(C)c(C(=O)O)c2c1 [Example 51] | < 0.5 | – | L1210 Leukemia % T/C (median survival time) ([1]; 75 mg/kg i.p.): 173%
11 | Cc1c(-c2ccc(-c3ccccc3)cc2)nc2ccc(Br)cc2c1C(=O)O [Example 52] | < 0.5 | – | response vs control in vivo at 75 mg/kg [1, 5]: 189%
12 | Cc1c(-c2ccc(Oc3ccccc3)cc2)nc2ccc(Br)cc2c1C(=O)O [Example 53] | < 0.5 | – | response vs control in vivo at 75 mg/kg [1, 5]: 136%
13 | Cc1c(-c2ccc(-c3ccc(F)cc3)cc2)nc2cc(Cl)c(F)cc2c1C(=O)O [Example 54] | < 0.5 | – | response vs control in vivo at 300 mg/kg [1, 3]: 125%
14 | Cc1c(-c2ccc(-c3ccccc3)cc2)nc2ccc(C(F)(F)F)cc2c1C(=O)O [Example 56] | < 0.5 | – | response vs control in vivo at 75 mg/kg [1, 5]: 176%
15 | Cc1c(-c2ccc(Oc3ccccc3)cc2)nc2ccc(C(F)(F)F)cc2c1C(=O)O [Example 57] | < 0.5 | – | response vs control in vivo at 150 mg/kg [1, 3]: 197%
16 | Cc1cc2c(C(=O)O)c(C)c(-c3ccc(-c4ccccc4)cc3)nc2cc1Cl [Example 58] | – | > 0.50 µg/mL | response vs control in vivo at 150 mg/kg [1, 3]: 141%
17 | Cc1cc2c(C(=O)O)c(C)c(-c3ccc(Oc4ccccc4)cc3)nc2cc1Cl [Example 59] | > 5 | – | response vs control in vivo at 300 mg/kg [1, 3]: 152%
18 | Cc1c(-c2ccc(-c3ccccc3)cc2)nc2c(Br)cc(Br)cc2c1C(=O)O [Example 60] | < 0.5 | – | response vs control in vivo at 300 mg/kg [1, 3]: 192%
19 | Cc1c(-c2ccc(-c3cccc(F)c3)cc2)nc2ccc(F)cc2c1C(=O)O [Example 73] | < 0.1 | – | response vs control in vivo at 50 mg/kg [1, 3]: 195%

Row | SMILES | IC50 [2] [µg/mL] | in vitro HCT-15 ID50 (50 percent inhibition of number of doublings) [2] | further results
20 | Cc1c(-c2ccc(-c3ccccc3)cc2)nc2ccc(F)c(Cl)c2c1C(=O)O [Example 81, 2-(4-Biphenyl)-5-chloro-6-fluoro-3-methyl-4-quinolinecarboxylic acid] | < 0.5 | – | response vs control in vivo at 25 mg/kg [1, 3]: 191%
21 | Cc1c(-c2ccc(-c3ccccc3)cc2)nc2cc(Cl)cc(Cl)c2c1C(=O)O [Example 82] | > 1 | – | response vs control in vivo at 100 mg/kg [1, 4]: 144%
22 | Cc1ccc2nc(-c3ccc(-c4ccccc4)cc3)c(C)c(C(=O)O)c2c1Cl [Example 83] | > 1 | – | response vs control in vivo at 100 mg/kg [1, 4]: 198%
23 | Cc1c(-c2ccc(-c3ccccc3)cc2)nc2cc(F)ccc2c1C(=O)O [Example 87] | < 0.5 | – | response vs control in vivo at 100 mg/kg [1, 4]: 146%
24 | Cc1c(-c2ccc(C3CCCCC3)cc2)nc2ccc(Cl)cc2c1C(=O)O [Example 93] | – | 0.06 µg/mL and 0.04 µg/mL | response vs control in vivo at 50 mg/kg [1, 6]: 101%
25 | O=C(O)c1cc(-c2ccc(C3CCCCC3)cc2)nc2ccc(Cl)cc12 [Example 94] | – | 0.65 µg/mL | response vs control in vivo at 100 mg/kg [1, 7]: 107%
26 | O=C(O)c1cc(-c2ccc(C3CCCCC3)cc2)nc2ccc(F)cc12 [Example 95] | – | 0.04 µg/mL | response vs control in vivo at 100 mg/kg [1, 7]: 108%
27 | Cc1ccc2nc(-c3ccc(C4CCCCC4)cc3)c(C)c(C(=O)O)c2c1 [Example 96] | – | < 0.50 µg/mL | response vs control in vivo at 37.5 mg/kg ([1]; Mus musculus, L1210, ip, 720 h, 37.5 mg/kg i.p., nonoptimal Q1DX9 instead of Q3DX9, read-out: L1210 Leukemia % T/C (median survival time)): 97%
28 | CCCCCCCCCCc1ccc(-c2nc3ccc(F)cc3c(C(=O)O)c2C)cc1 [Example 97] | – | 0.14 µg/mL | response vs control in vivo at 25 mg/kg [1, 6]: 110%
29 | Cc1c(-c2ccc(Oc3ccccc3)cc2)nc2ccc(F)cc2c1C(=O)O [Example 101] | – | 0.41 µg/mL | response vs control in vivo at 50 mg/kg [1, 3]: 154%
30 | Cc1c(-c2ccc(-c3ccc(Br)cc3)cc2)nc2ccc(F)cc2c1C(=O)O [Example 102] | – | 1.0 µg/mL and 1.9 µg/mL | response vs control in vivo at 12.5 mg/kg [1, 3]: 164%
31 | Cc1c(-c2ccc(SC(C)C)cc2)nc2ccc(F)cc2c1C(=O)O [Example 103] | – | 0.17 µg/mL | response vs control in vivo at 200 mg/kg [1, 6]: 108%
32 | CCc1c(-c2ccc(C3CCCCC3)cc2)nc2ccc(C)cc2c1C(=O)O [Example 105] | – | 0.33 µg/mL | response vs control in vivo at 12.5 mg/kg [1, 6]: 108%
33 | Cc1c(-c2ccc(OCc3ccccc3)cc2)nc2ccc(F)cc2c1C(=O)O [Example 106] | – | 1.20 µg/mL | response vs control in vivo at 25 mg/kg [1, 6]: 107%
34 | CCc1c(-c2ccc(C(C)CC)cc2)nc2ccc(F)cc2c1C(=O)O (centres unmarked) [Example 107] | – | 0.09 µg/mL | response vs control in vivo at 25 mg/kg [1, 6]: 116%
35 | CCc1c(-c2ccc(-c3ccccc3)cc2)nc2ccc(F)cc2c1C(=O)O [Example 108] | – | 0.10 µg/mL | L1210 Leukemia % T/C (median survival time) ([1]; 100 mg/kg i.p.): 166%
36 | Cc1c(-c2ccc(-c3ccccc3)cc2)nc2ccc(Cl)cc2c1C(=O)O [Example 109] | – | < 0.50 µg/mL | response vs control in vivo at 100 mg/kg [1, 4]: 172%
37 | Cc1c(-c2ccc(Sc3ccccc3)cc2)nc2ccc(Cl)cc2c1C(=O)O [Example 111] | < 0.5 | – | response vs control in vivo at 25 mg/kg [1, 3]: 125%

— patent US5032597A, “Method of using phenylquinolinecarboxylic acids and derivatives for lymthoid leukemia treatment in a mammal” (priority 1987, dated 1991)
